In patent US3940382A, “1,2'-Di-N-substituted kanamycin B compounds” (Zaidan Hojin Biseibutsu Kagaku Kenkyu Kai, priority 1973, dated 1976):
In brackets after ≈: the same amount, converted by molar mass.

What was measured:
[1] = test system: Corynebacterium bovis 1810; assay: MIC, serial dilution on nutrient agar; assay type: cell-based; conditions: Corynebacterium bovis 1810; nutrient agar, 37°C, 18 hours; read-out: Minimum Inhibitory Concentrations
[2] = test system: Bacillus subtilis PCI 219; assay: MIC, serial dilution on nutrient agar; assay type: cell-based; conditions: PCI219; Bacillus subtilis PCI 219; nutrient agar, 37°C, 18 hours; read-out: Minimum Inhibitory Concentrations
[3] = test system: Salmonella enteritidis 1891; assay: MIC, serial dilution on nutrient agar; assay type: cell-based; conditions: Salmonella enterica, ENTERITIDIS, 18 h, read-out: Minimum Inhibitory Concentrations
[4] = test system: Escherichia coli JR66/W677; conditions: strain adenylylating the 2"-hydroxyl group; cited from earlier work
[5] = test system: Escherichia coli K-12 ML 1630; assay: MIC, serial dilution on nutrient agar; assay type: cell-based; conditions: K12ML1630, 37°C, 18 hours, read-out: Minimum Inhibitory Concentrations
Protocol: (§1) The minimum inhibitory concentrations (mcg/ml) of 1,2'-di-N-[(S)-4-amino-2-hydroxybutyryl]-kanamycin B (abbreviated as 1,2'-AHB-KMB), 1,2'-di-N-[(S)-4-amino-2-hydroxybutyryl]-3',4'-dideoxykanamycin B (abbreviated as 1,2'-AHB-DKB), 1,2'-di-N-DL-isoseryl-3',4'-dideoxykanamycin B (abbreviated as 1,2'-IS-DKB) and 1,2'-di-N-DL-isoseryl-kanamycin B (abbreviated as 1,2'-IS-KMB) against various microorganisms were determined according to serial dilution method using nutrient agar medium at 37°C, the estimation being effected after 18 hours incubation. For comparison, the minimum inhibitory concentrations of kanamycin B (abbreviated as KMB) and 3',4'-dideoxykanamycin B (abbreviated as DKB) were also determined in the same manner as mentioned above.

Shigella sonnei JS 11746 = assay: MIC, serial dilution on nutrient agar; assay type: cell-based; conditions: JS11746, 37°C, 18 hours, read-out: Minimum Inhibitory Concentrations
Protocol: as §1

[6] = test system: Shigella flexneri 4b JS 11811; assay: MIC, serial dilution on nutrient agar; assay type: cell-based; conditions: 4BJS11811, 37°C, 18 hours, read-out: Minimum Inhibitory Concentrations
Protocol: as §1

drug-resistant bacteria = conditions: cited from earlier work
[7] = test system: Escherichia coli LA290 R55; assay: MIC, serial dilution on nutrient agar; assay type: cell-based; conditions: LA290R55, 18 h, read-out: Minimum Inhibitory Concentrations
[8] = test system: Staphylococcus aureus Smith; assay: MIC, serial dilution on nutrient agar; assay type: cell-based; conditions: Staphylococcus aureus Smith; nutrient agar, 37°C, 18 hours; read-out: Minimum Inhibitory Concentrations
[9] = test system: Pseudomonas aeruginosa TI-13; assay: MIC, serial dilution on nutrient agar; assay type: cell-based; conditions: Pseudomonas aeruginosa, TI13, 18 h, read-out: Minimum Inhibitory Concentrations
[10] = test system: Escherichia coli K-12 ML 1629; assay: MIC, serial dilution on nutrient agar; assay type: cell-based; conditions: K12ML1629; Escherichia coli K-12 ML 1629; nutrient agar, 37°C, 18 hours; read-out: Minimum Inhibitory Concentrations
[11] = test system: kanamycin-resistant strains; conditions: strains phosphorylating the 3'-hydroxyl group of kanamycins; cited from earlier work
Escherichia coli W677 = assay: MIC, serial dilution on nutrient agar; assay type: cell-based; conditions: Escherichia coli W677; nutrient agar, 37°C, 18 hours; read-out: Minimum Inhibitory Concentrations
Bacillus anthracis = assay: microbe, parasite or virus in culture; assay type: cell-based; conditions: 18 h, read-out: Minimum Inhibitory Concentrations
[12] = test system: Shigella dysenteriae JS 11910; assay: MIC, serial dilution on nutrient agar; assay type: cell-based; conditions: JS11910, 18 h, read-out: Minimum Inhibitory Concentrations
[13] = test system: Escherichia coli JR66/W677; assay: MIC, serial dilution on nutrient agar; assay type: cell-based; conditions: Escherichia coli JR66/W677; nutrient agar, 37°C, 18 hours; read-out: Minimum Inhibitory Concentrations
[14] = test system: Pseudomonas aeruginosa No.12; assay: MIC, serial dilution on nutrient agar; assay type: cell-based; conditions: Pseudomonas aeruginosa No.12; nutrient agar, 37°C, 18 hours; read-out: Minimum Inhibitory Concentrations
[15] = test system: Klebsiella pneumoniae PCI 602; assay: MIC, serial dilution on nutrient agar; assay type: cell-based; conditions: PCI602; Klebsiella pneumoniae PCI 602; nutrient agar, 37°C, 18 hours; read-out: Minimum Inhibitory Concentrations
[16] = test system: Bacillus subtilis NRRL B-558; assay: MIC, serial dilution on nutrient agar; assay type: cell-based; conditions: NRRLB558; Bacillus subtilis NRRL B-558; nutrient agar, 37°C, 18 hours; read-out: Minimum Inhibitory Concentrations
[17] = test system: Escherichia coli LA290 R64; assay: MIC, serial dilution on nutrient agar; assay type: cell-based; conditions: LA290R64, 18 h, read-out: Minimum Inhibitory Concentrations
[18] = test system: Klebsiella pneumoniae 22 -3038; assay: MIC, serial dilution on nutrient agar; assay type: cell-based; conditions: 223038; Klebsiella pneumoniae 22 -3038; nutrient agar, 37°C, 18 hours; read-out: Minimum Inhibitory Concentrations
Escherichia coli NIHJ = assay: MIC, serial dilution on nutrient agar; assay type: cell-based; conditions: Escherichia coli NIHJ; nutrient agar, 37°C, 18 hours; read-out: Minimum Inhibitory Concentrations
Sarcina lutea PCI 1001 = assay: MIC, serial dilution on nutrient agar; assay type: cell-based; conditions: Micrococcus luteus, PCI1001; Sarcina lutea PCI 1001; nutrient agar, 37°C, 18 hours; read-out: Minimum Inhibitory Concentrations
[19] = test system: Pseudomonas aeruginosa 99; assay: MIC, serial dilution on nutrient agar; assay type: cell-based; conditions: Pseudomonas aeruginosa 99; nutrient agar, 37°C, 18 hours; read-out: Minimum Inhibitory Concentrations
[20] = test system: Mycobacterium smegmatis ATCC 607; assay: MIC, serial dilution on nutrient agar; assay type: cell-based; conditions: Mycolicibacterium smegmatis, ATCC607; Mycobacterium smegmatis ATCC 607; nutrient agar, 37°C, 18 hours; read-out: Minimum Inhibitory Concentrations
Escherichia coli K-12 = assay: MIC, serial dilution on nutrient agar; assay type: cell-based; conditions: K12; Escherichia coli K-12; nutrient agar, 37°C, 18 hours; read-out: Minimum Inhibitory Concentrations
[21] = test system: Escherichia coli LA290 R56; assay: MIC, serial dilution on nutrient agar; assay type: cell-based; conditions: LA290R56, 18 h, read-out: Minimum Inhibitory Concentrations
[22] = test system: Staphylococcus aureus Terejima; assay: MIC, serial dilution on nutrient agar; assay type: cell-based; conditions: Staphylococcus aureus Terejima; nutrient agar, 37°C, 18 hours; read-out: Minimum Inhibitory Concentrations
[23] = test system: Staphylococcus aureus FDA 209P; assay: MIC, serial dilution on nutrient agar; assay type: cell-based; conditions: FDA209P; Staphylococcus aureus FDA 209P; nutrient agar, 37°C, 18 hours; read-out: Minimum Inhibitory Concentrations
[24] = test system: Pseudomonas aeruginosa GN315; assay: MIC, serial dilution on nutrient agar; assay type: cell-based; conditions: Pseudomonas aeruginosa GN315; nutrient agar, 37°C, 18 hours; read-out: Minimum Inhibitory Concentrations
[25] = test system: Escherichia coli K-12 ML 1410 R81; assay: MIC, serial dilution on nutrient agar; assay type: cell-based; conditions: 18 h, read-out: Minimum Inhibitory Concentrations
Salmonella typhosa T-63 = assay: MIC, serial dilution on nutrient agar; assay type: cell-based; conditions: Salmonella enterica, 18 h, read-out: Minimum Inhibitory Concentrations
[26] = test system: Escherichia coli K-12 ML 1410; assay: MIC, serial dilution on nutrient agar; assay type: cell-based; conditions: Escherichia coli, K12ML1410, 18 h, read-out: Minimum Inhibitory Concentrations
[27] = test system: Bacillus cereus ATCC 10702; assay: MIC, serial dilution on nutrient agar; assay type: cell-based; conditions: ATCC10702; Bacillus cereus ATCC 10702; nutrient agar, 37°C, 18 hours; read-out: Minimum Inhibitory Concentrations
Proteus vulgaris OX 19 = assay: MIC, serial dilution on nutrient agar; assay type: cell-based; conditions: OX19; Proteus vulgaris OX 19; nutrient agar, 37°C, 18 hours; read-out: Minimum Inhibitory Concentrations
[28] = test system: Pseudomonas aeruginosa A3; assay: MIC, serial dilution on nutrient agar; assay type: cell-based; conditions: Pseudomonas aeruginosa, A3, 18 h, read-out: Minimum Inhibitory Concentrations
[29] = test system: kanamycin-resistant bacteria; conditions: some kanamycin-resistant bacteria; cited from earlier work
[30] = test system: ribostamycin-resistant bacteria; conditions: some ribostamycin-resistant bacteria; cited from earlier work

## NC[C@@H]1CC[C@@H](N)[C@@H](O[C@H]2[C@H](O)[C@@H](O[C@H]3O[C@H](CO)[C@@H](O)[C@H](N)[C@H]3O)[C@H](N)C[C@@H]2N)O1 [DKB, 3',4'-dideoxykanamycin B, reference compound]
[1]
  MIC: 3.13 µg/mL (≈ 6.93 µM)
[2]
  MIC: < 0.2 µg/mL
[3]
  MIC: 1.56 µg/mL (≈ 3.45 µM)
[4]
  activity against kanamycin-resistant strains such as Escherichia coli JR66/W677: practically inactive
[5]
  MIC: 0.78 µg/mL (≈ 1.73 µM)
Shigella sonnei JS 11746
  MIC: 0.78 µg/mL (≈ 1.73 µM)
[6]
  MIC: 1.56 µg/mL (≈ 3.45 µM)
drug-resistant bacteria
  antibacterial activity against the drug-resistant bacteria: improved antibacterial activity
[7]
  MIC: 50 µg/mL (≈ 111 µM)
[8]
  MIC: < 0.2 µg/mL
[9]
  MIC: 1.56 µg/mL (≈ 3.45 µM)
[10]
  MIC: 0.78 µg/mL (≈ 1.73 µM)
[11]
  effectiveness against kanamycin-resistant strains: actually effective
Escherichia coli W677
  MIC: 0.2 µg/mL (≈ 0.443 µM)
Bacillus anthracis
  MIC: < 0.2 µg/mL
[12]
  MIC: 1.56 µg/mL (≈ 3.45 µM)
[13]
  MIC: 50 µg/mL (≈ 111 µM)
[14]
  MIC: 0.78 µg/mL (≈ 1.73 µM)
[15]
  MIC: 0.39 µg/mL (≈ 0.864 µM)
[16]
  MIC: < 0.2 µg/mL
[17]
  MIC: 6.25 µg/mL (≈ 13.8 µM)
[18]
  MIC: 100 µg/mL (≈ 221 µM)
Escherichia coli NIHJ
  MIC: 0.39 µg/mL (≈ 0.864 µM)
Sarcina lutea PCI 1001
  MIC: 6.25 µg/mL (≈ 13.8 µM)
[19]
  MIC: 3.13 µg/mL (≈ 6.93 µM)
[20]
  MIC: 0.39 µg/mL (≈ 0.864 µM)
Escherichia coli K-12
  MIC: 0.78 µg/mL (≈ 1.73 µM)
[21]
  MIC: 12.5 µg/mL (≈ 27.7 µM)
[22]
  MIC: < 0.2 µg/mL
[23]
  MIC: < 0.2 µg/mL
[24]
  MIC: > 100 µg/mL
[25]
  MIC: 1.56 µg/mL (≈ 3.45 µM)
Salmonella typhosa T-63
  MIC: < 0.2 µg/mL
[26]
  MIC: 1.56 µg/mL (≈ 3.45 µM)
[27]
  MIC: 0.78 µg/mL (≈ 1.73 µM)
Proteus vulgaris OX 19
  MIC: < 0.2 µg/mL
[28]
  MIC: 1.56 µg/mL (≈ 3.45 µM)

## NCC[C@H](O)C(=O)N[C@@H]1C[C@H](N)[C@@H](O[C@H]2O[C@H](CN)[C@@H](O)[C@H](O)[C@H]2N)[C@H](O[C@@H]2O[C@H](CO)[C@@H](O)[C@H]2O)[C@H]1O [butirosin B, 1-N-[(S)-α-hydroxy-γ-amino-n-butyryl]-ribostamycin]
[29]
  activity against kanamycin-resistant bacteria: active
[30]
  activity against ribostamycin-resistant bacteria: active
